Values of other authors as cited in US20120195873A1, “METHODS OF A[…] LOSS OF […]” (NESTEC S.A., priority 2009, published 2012).

Columns and labels:
skeletal muscle [1] = details: animal data, exogenous 25-OH
[2] = 400 mg twice daily; heavy exercise, calcium loss through sweat
skeletal muscle [3] = details: vitamin D deficient rats
type II muscle fibers = details: vitamin D deficient patients, pre- vs post-supplementation
[4] = tested on: lower extremity muscle performance; details: elderly; amounts bringing mean serum 25-OH Vitamin D to 66-84 nmol/L

In the case of 25-Hydroxy Vitamin D [25-OH], the “skeletal muscle protein synthesis” value (skeletal muscle [1]) is listed as “increases skeletal muscle protein synthesis”.

For O=C([O-])[O-].[Ca+2] [calcium carbonate], the “offset of exercise-induced net calcium loss” value [2] is listed as “sufficient to offset this loss”.

In the case of vitamin D, the muscle mass (skeletal muscle [3]) is given as “increased muscle mass”, the “rate of myofibrillar protein degradation” value (skeletal muscle [3]) is given as “decreased rate of myofibrillar protein degradation” and the weight gain (skeletal muscle [3]) is given as “weight gain”. For the same compound, the “atrophy of type II muscle fibers in biopsies” value (type II muscle fibers) was “significant improvements were observed post-supplementation” and the “lower extremity muscle performance” value [4] was “improves lower extremity muscle performance”.
